The text below walks through data of publication PMC8847575, “HSL1 and BAM1/2 impact epidermal cell development by sensing distinct signaling peptides” (Nature Communications, 2022).

One experiment deals with T1, HSL1 ectodomain (Arabidopsis thaliana, UniProt Q9SGP2).
T1 construct: HSL1 (residues 17-618, AT1G28440); azurocidin or Drosophila BIP signal peptide (secretion signal) (N); made in house; host or cells: Trichoplusia ni Tnao38 insect cells (baculovirus)
T1 sequence (Q9SGP2 17-618): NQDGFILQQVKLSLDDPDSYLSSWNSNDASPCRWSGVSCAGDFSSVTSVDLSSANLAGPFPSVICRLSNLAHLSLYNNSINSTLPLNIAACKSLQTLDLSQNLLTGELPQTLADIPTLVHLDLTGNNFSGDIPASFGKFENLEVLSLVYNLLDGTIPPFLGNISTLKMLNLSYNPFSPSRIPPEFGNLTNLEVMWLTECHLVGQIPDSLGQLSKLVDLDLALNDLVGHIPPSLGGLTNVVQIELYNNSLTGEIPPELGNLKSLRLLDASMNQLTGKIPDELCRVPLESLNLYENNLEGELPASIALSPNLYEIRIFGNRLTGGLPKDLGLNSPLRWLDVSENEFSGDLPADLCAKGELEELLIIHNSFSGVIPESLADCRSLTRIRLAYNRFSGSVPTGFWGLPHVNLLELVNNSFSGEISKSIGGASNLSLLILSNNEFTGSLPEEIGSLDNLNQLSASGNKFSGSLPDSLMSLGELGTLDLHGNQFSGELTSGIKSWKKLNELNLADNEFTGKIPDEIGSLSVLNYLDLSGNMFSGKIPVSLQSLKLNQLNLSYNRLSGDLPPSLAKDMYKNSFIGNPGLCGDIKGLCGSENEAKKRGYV
Briefly: ITC, peptide titrated into isolated HSL1 ectodomain. As to conditions: peptide (syringe) into HSL1 ectodomain (cell), 25 °C, 20 mM sodium citrate pH 5.0, 150 mM NaCl, N fitted to 1, mean ± SD of at least two independent experiments, n.d = no binding detected. The text has this: (§1) All genes used for protein expression in Trichoplusia ni Tnao38 cells[46] were codon optimized and cloned into a modified pFastBac vector (Geneva Biotech) providing an azurocidin[47] or Drosophila BIP signal peptide, a TEV (tobacco etch virus protease) cleavage site and a Strep-9xHis tandem affinity tag at their carboxy terminus. The genes used are coding for the Arabidopsis ectodomains of HSL1 (residues 17-618, AT1G28440), HAE (residues 20-620, AT4G28490) SERK1 (residues 24–213, AT1G71830), and BAM1 (residues 20–637, AT5G65700). To perform Grating-coupled interferometry (GCI) experiments, HSL1 was fused to a non-cleavable Avi-tag[49],[50]. […] After every expression round, secretion of our proteins was detected using an anti-His-HRP conjugated antibody from Roche (Ref:11965085001) in a 1:2000 dilution. […] Proteins were analyzed for purity and structural integrity by SDS-PAGE.
(§2) Experiments were performed at 25 °C using a MicroCal PEAQ-ITC (Malvern Instruments) with a 200 µL standard cell and a 40 μL titration syringe. […] Molar protein concentrations for HSL1, BAM1, and SERK1 were calculated using their molar extinction coefficient and a molecular weight of 74,896 and 27,551 Da, respectively as previously determined. […] Experiments were done in duplicates or triplicates, otherwise specified, and data were analyzed using the MicroCal PEAQ-ITC Analysis Software provided by the manufacturer. […]
In general terms: Isothermal titration calorimetry measures the heat released or taken up as one component is titrated into another.

The target of a further experiment is T2, HSL1-SERK1 complex (Arabidopsis thaliana, UniProt Q94AG2+Q9SGP2).
T2 construct: HSL1 (residues 17-618, AT1G28440); made in house; host or cells: Trichoplusia ni Tnao38 insect cells (baculovirus)
T2 sequence (Q9SGP2 17-618): T1 sequence (Q9SGP2 17-618)
T2 sequence (Q94AG2 24-213 partner limits assumed): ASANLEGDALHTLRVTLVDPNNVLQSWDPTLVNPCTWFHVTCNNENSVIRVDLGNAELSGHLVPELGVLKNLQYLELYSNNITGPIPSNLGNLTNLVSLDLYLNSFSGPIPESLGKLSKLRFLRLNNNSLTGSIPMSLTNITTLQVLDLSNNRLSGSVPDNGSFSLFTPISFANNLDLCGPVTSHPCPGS
The experiment can be described thus: ITC, SERK1 titrated into HSL1 plus peptide (ternary complex formation). Conditions: SERK1 (syringe) into HSL1 + indicated peptide (cell), 25 °C, 20 mM sodium citrate pH 5.0, 150 mM NaCl, N fitted to 1, mean ± SD of at least two independent experiments, n.d = no binding detected.
Description: as §1, §2

Ends that are not written are not given here.

Take RLVPSGPNPLHH [CLE13]: the “Kd (dissociation constant), peptide vs HSL1” value on HSL1 ectodomain was “could not detect binding”. Moreover, the “Kd (dissociation constant), SERK1 vs HSL1 + peptide” value at HSL1-SERK1 complex was “no biding was detected”.
